What was measured:
Format in all cases: in vivo, human
[1] = test system: Melanoma of the left lower leg; experiment: Example 11: patient with melanoma treated with 5% rhodamine 6G ointment; settings: Patient Sh., 75
amyloidosis = experiment: Example 1: patient with amyloidosis treated with rhodamine 6G; settings: Patient V
Method: Patient V. Diagnosis: amyloidosis. The patient felt lethargic and “under the weather”. […] The first course of treatment with the preparation consisted of 15 drops of a 1% solution in a glass of water three times a day by mouth, at the evening meal in addition a microenema of 10 drops of a 1% solution in 30 ml of water, and at night a 1% suppository containing the preparation. […] By the third week after the start of treatment the patient's condition had improved. In the words of relatives, the patient was “feeling better”. […] Blood analyses against the treatment background were normal.

[2] = test system: Primary cancer of the liver; experiment: Example 5: patient with primary liver cancer treated with rhodamine 6G; design: Nuclear segments / Erythrocytes / Hemoglobin / Thrombocytes / Leukocytes / Amylase / Chlorine / Serum iron / Cholesterol / Total bilirubin / Bilirubin (line r8, above 'direct'): unit not given here; settings: for Creatinine / Cholesterol / Total bilirubin / Potassium / ALT / AST / Bilirubin (line r8, above 'direct') / Serum iron / Total protein / Amylase / Chlorine / LDG / Bilirubin (line r10, above 'indirect') / direct (line r9) / indirect (line r11) / Phosphatase, alk. / Erythrocytes / Hemoglobin / Leukocytes / Thrombocytes / Basophils / Eosinophils / Nuclear rods / ESR / Monocytes / Lymphocytes / Nuclear segments: Example 5, Patient L; for Cholesterol: normal 1.66-8.3; for Total bilirubin: normal 2.90-6.54; for Potassium: normal 3.5-6.0; for ALT / AST: normal 5-40; for Bilirubin (line r8, above 'direct'): normal 8.5-20.5; for Serum iron: normal 8.8-27.0; for Total protein: normal 65.0-85.0; for Amylase: normal 95-110.0; for Chlorine: normal 135.0-; for LDG: normal 225-450; for Bilirubin (line r10, above 'indirect') / direct (line r9): normal up to 25%; for indirect (line r11): normal up to 100; for Phosphatase, alk.: normal up to 104; for Basophils: normal 0-1%; for Eosinophils: normal 0-5; for Nuclear rods: normal 1-6%; for ESR: normal 1-15 mm/hr; for Monocytes: normal 2-9%; for Lymphocytes: normal 18-40%; for Nuclear segments: normal 45-70
Method: Patient […]. Diagnosis: Primary cancer of the liver. One and a half years before, resection of part of the right hepatic lobe on account of liver cell carcinoma. Patient complained of pain in the right hypochondrium, dyspnea, ascites, intermittent retention of stools. Patient's condition moderately severe, loss of appetite, jaundice. […] The patient underwent bougienation of the umbilical vein. […] Subsequent procedures were carried out in exactly the same way twice a week. Only the preparation was administered intravenously. The course of treatment lasted 3 months. During the treatment the tumor in the affected region decreased in size to 0.5×0.7 cm. After 4 months a connective tissue scar of size 0.2×0.3 cm remained at the site of the tumor in the liver.

- blood analyses against the treatment background (amyloidosis): normal
Substance: 9-(2-ethoxycarbonyl)phenyl)-3,6-bis(ethylamino)2,7-dimethylxanthyl chloride [rhodamine 6G]
- decrease of sizes of the tumors ([1]; 5% ointment, over 2 months, before 5×7×9 cm): 70%
- recurrence of the melanoma ([1]; over 3 years): no recurrence
- patient's condition (amyloidosis; 73, first week, 1% solution oral, microenema, 1% suppository): basically no change
- patient's condition (amyloidosis; one year after treatment): significantly improved
- patient's condition (amyloidosis; third week after start of treatment): improved
- amyloid foci in the brain, CT scan (amyloidosis; three months after start of treatment): reduction of amyloid foci in the brain
- Creatinine ([2]; 04 Feb. 2005): 79 µM
- Cholesterol ([2]; 04 Feb. 2005): 5.75
- Total bilirubin ([2]; 04 Feb. 2005): 8.4
- Potassium ([2]; 04 Feb. 2005): 2.28
- ALT ([2]; 04 Feb. 2005): 154.2 el
- AST ([2]; 04 Feb. 2005): 103.8 el
- Bilirubin (line r8, above 'direct') ([2]; 04 Feb. 2005): 3.3
- Serum iron ([2]; 04 Feb. 2005): 94.4
- Total protein ([2]; 04 Feb. 2005): 78
- Amylase ([2]; 04 Feb. 2005): 102.8
- Chlorine ([2]; 04 Feb. 2005): 114.31
- LDG ([2]; 04 Feb. 2005): 332 el
- Bilirubin (line r10, above 'indirect') ([2]; 04 Feb. 2005): 84%
- direct (line r9) ([2]; 04 Feb. 2005): 5.1%
- indirect (line r11) ([2]; 04 Feb. 2005): 89 el
- Phosphatase, alk. ([2]; 04 Feb. 2005): 4.55 el
- Creatinine ([2]; 07 Apr. 2005): 67 µM
- Cholesterol ([2]; 07 Apr. 2005): 7.03
- Total bilirubin ([2]; 07 Apr. 2005): 8.0
- Potassium ([2]; 07 Apr. 2005): 2.15
- ALT ([2]; 07 Apr. 2005): 40 el
- AST ([2]; 07 Apr. 2005): 30.4 el
- Bilirubin (line r8, above 'direct') ([2]; 07 Apr. 2005): 2.0
- Serum iron ([2]; 07 Apr. 2005): 43.7
- Total protein ([2]; 07 Apr. 2005): 64.34
- Amylase ([2]; 07 Apr. 2005): 110.0
- Chlorine ([2]; 07 Apr. 2005): 134.2
- LDG ([2]; 07 Apr. 2005): 362 el
- Bilirubin (line r10, above 'indirect') ([2]; 07 Apr. 2005): 90%
- direct (line r9) ([2]; 07 Apr. 2005): 6.0%
- indirect (line r11) ([2]; 07 Apr. 2005): 78.0 el
- Phosphatase, alk. ([2]; 07 Apr. 2005): 6.7 el
- Creatinine ([2]; 10 Nov. 2004): 98 µM
- Cholesterol ([2]; 10 Nov. 2004): 6.21
- Total bilirubin ([2]; 10 Nov. 2004): 11.0
- Potassium ([2]; 10 Nov. 2004): 2.72
- ALT ([2]; 10 Nov. 2004): 665.8 el
- AST ([2]; 10 Nov. 2004): 554.5 el
- Bilirubin (line r8, above 'direct') ([2]; 10 Nov. 2004): 3.0
- Serum iron ([2]; 10 Nov. 2004): 190.4
- Total protein ([2]; 10 Nov. 2004): 43.43
- Amylase ([2]; 10 Nov. 2004): 114.0
- Chlorine ([2]; 10 Nov. 2004): 114.20
- LDG ([2]; 10 Nov. 2004): 879 el
- Bilirubin (line r10, above 'indirect') ([2]; 10 Nov. 2004): 82%
- direct (line r9) ([2]; 10 Nov. 2004): 8.0%
- indirect (line r11) ([2]; 10 Nov. 2004): 107.2 el
- Phosphatase, alk. ([2]; 10 Nov. 2004): 5.71 el
- Erythrocytes ([2]; 12 Nov. 2004): 3.22
- Hemoglobin ([2]; 12 Nov. 2004): 74
- Leukocytes ([2]; 12 Nov. 2004): 7.2
- Thrombocytes ([2]; 12 Nov. 2004): 315
- Basophils ([2]; 12 Nov. 2004): 1%
- Eosinophils ([2]; 12 Nov. 2004): 1
- Nuclear rods ([2]; 12 Nov. 2004): 1%
- ESR ([2]; 12 Nov. 2004): 3.5 mm/hr
- Monocytes ([2]; 12 Nov. 2004): 15%
- Lymphocytes ([2]; 12 Nov. 2004): 9%
- Nuclear segments ([2]; 12 Nov. 2004): 21
- Erythrocytes ([2]; 14 Feb. 2005): 4.37
- Hemoglobin ([2]; 14 Feb. 2005): 117
- Leukocytes ([2]; 14 Feb. 2005): 5.8
- Thrombocytes ([2]; 14 Feb. 2005): 286
- Eosinophils ([2]; 14 Feb. 2005): 2
- Monocytes ([2]; 14 Feb. 2005): 4%
- Lymphocytes ([2]; 14 Feb. 2005): 23%
- Nuclear segments ([2]; 14 Feb. 2005): 63
- Erythrocytes ([2]; 17 Apr. 2006): 4.67
- Hemoglobin ([2]; 17 Apr. 2006): 123
- Leukocytes ([2]; 17 Apr. 2006): 6.7
- Thrombocytes ([2]; 17 Apr. 2006): 310
- Basophils ([2]; 17 Apr. 2006): 1%
- Eosinophils ([2]; 17 Apr. 2006): 1
- ESR ([2]; 17 Apr. 2006): 8.5 mm/hr
- Monocytes ([2]; 17 Apr. 2006): 9%
- Lymphocytes ([2]; 17 Apr. 2006): 37%
- Nuclear segments ([2]; 17 Apr. 2006): 65
- Erythrocytes ([2]; 19 Jan. 2005): 3.60
- Hemoglobin ([2]; 19 Jan. 2005): 80
- Leukocytes ([2]; 19 Jan. 2005): 7.8
- Thrombocytes ([2]; 19 Jan. 2005): 362
- Eosinophils ([2]; 19 Jan. 2005): 2
- Nuclear rods ([2]; 19 Jan. 2005): 1%
- Monocytes ([2]; 19 Jan. 2005): 4.3%
- Lymphocytes ([2]; 19 Jan. 2005): 16%
- Nuclear segments ([2]; 19 Jan. 2005): 44
- Creatinine ([2]; 20 Dec. 2005): 83 µM
- Cholesterol ([2]; 20 Dec. 2005): 5.62
- Total bilirubin ([2]; 20 Dec. 2005): 24.2
- Potassium ([2]; 20 Dec. 2005): 2.32
- ALT ([2]; 20 Dec. 2005): 426 el
- AST ([2]; 20 Dec. 2005): 432.9 el
- Bilirubin (line r8, above 'direct') ([2]; 20 Dec. 2005): 22.3
- Serum iron ([2]; 20 Dec. 2005): 224.7
- Total protein ([2]; 20 Dec. 2005): 49.90
- Amylase ([2]; 20 Dec. 2005): 140
- Chlorine ([2]; 20 Dec. 2005): 115.3
- LDG ([2]; 20 Dec. 2005): 556 el
- Bilirubin (line r10, above 'indirect') ([2]; 20 Dec. 2005): 96%
- direct (line r9) ([2]; 20 Dec. 2005): 11.9%
- indirect (line r11) ([2]; 20 Dec. 2005): 102 el
- Phosphatase, alk. ([2]; 20 Dec. 2005): 5.48 el
- patient's complaints ([2]; Patient L, 64, at the present time): no complaints
- blood analyses ([2]; Patient L, 64, during treatment): positive change
